The test addresses T1, human mPGES-1 (Homo sapiens, UniProt O14684).
T1 construct: made in house; host or cells: E. coli
T1 sequence (O14684 1-152): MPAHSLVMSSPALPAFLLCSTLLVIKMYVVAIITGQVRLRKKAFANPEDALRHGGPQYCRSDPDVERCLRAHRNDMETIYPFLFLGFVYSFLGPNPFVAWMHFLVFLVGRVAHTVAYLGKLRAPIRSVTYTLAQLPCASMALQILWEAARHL
Nature of the test: mPGES-1 biological test (conversion of PGH2 to PGE2, HPLC analysis). The note with it: human mPGES-1 expressed in E. coli, membrane fraction; 25 min preincubation with inhibitor, 60 s with PGH2, room temperature; read-out: concentration at which 50% inhibition of mPGES-1 was observed. In kind it is biochemical. As to the method: In the assay human mPGES-1 catalyses the reaction where the substrate PGH2 is converted to PGE2. mPGES-1 is expressed in E. coli and the membrane fraction is dissolved in 20 mM NaPi-buffer pH 8.0 and stored at −80° C. In the assay human mPGES-1 is dissolved in 0.1 M KPi-buffer pH 7.35 with 2.5 mM glutathione. The stop solution consists of H2O/MeCN (7/3), containing FeCl2 (25 mM) and HCl (0.15 M). The assay is performed at room temperature in 96-well plates. Analysis of the amount of PGE2 is performed with reversed phase HPLC (Waters 2795 equipped with a 3.9×150 mm C18 column). The mobile phase consists of H2O/MeCN (7/3), containing TFA (0.056%), and absorbance is measured at 195-nm with a Waters 2487 UV-detector.
The following is added chronologically to each well: • 1. 100 μL human mPGES-1 in KPi-buffer with glutathione. Total protein concentration: 0.02 mg/mL. • 2. 1 μL inhibitor in DMSO. Incubation of the plate at room temperature for 25 minutes. • 3. 4 μL of a 0.25 mM PGH2, solution. Incubation of the plate at room temperature for 60 seconds. • 4. 100 μL stop solution. • 180 μL per sample is analyzed with HPLC.

With `CC(C)Oc1ccc(-n2c(C(=O)O)cc3cc(-c4ccc(C(C)(C)C)cc4)ccc32)cc1` [Example 1, 5-(4-tert-Butylphenyl)-1-(4-isopropoxphenyl)-indole-2-carboxylic acid], the IC50 is 62 nM.

Regarding `CC(C)Oc1ccc(-n2c(C(=O)O)cc3cc(-c4ccc(OC(C)C)nc4)ccc32)cc1` [Example 9], the IC50 turned out to be 610 nM.

`CC(C)Oc1ccc(-c2ccc3c(c2)c(Cl)c(C(=O)O)n3-c2ccc(OC(C)C)nc2)cc1` [Example 33, 3-Chloro-5-(4-isopropoxyphenyl)-1-(6-isopropoxypyrid-3-yl)indole-2-carboxylic acid]: the IC50 is 390 nM.

For the compound `O=C(O)c1c(Cl)c2cc(-c3ccc(C(F)(F)F)cn3)ccc2n1-c1ccc(OC2CCCC2)nc1` [Example 36, 3-Chloro-1-(6-cyclopentoxypyrid-3-yl)-5-(5-trifluoromethylpyrid-2-yl)-1H-indole-2-carboxylic acid], the IC50 stood at 1100 nM.

For `CC(C)(C)c1ccc(-c2ccc3c(c2)cc(C(=O)O)n3-c2ccc(C3CCCCC3)cc2)cc1` [Example 64, 5-(4-tert-Butylphenyl)-1-(4-cyclohexylphenyl)-1H-indole-2-carboxylic acid], the IC50 is 170 nM.
